Reference: PubChem BioAssay AID1963972 (Molecular Pharmacology Branch, DTP, NCI, 2024)

Test system: 945468-187-T-J2-PDC spheroids viability
Assay: Anticancer human tumor 945468-187-T-J2-PDC patient-derived rectal carcinoma cell line growth inhibition [PI3K]
Conditions: spheroids with HUVEC and MSC; for IC50: curve of first compound; for viability, T/C: stronger effect = lower value
Text: Combinatorial screen of targeted agents with the PI3K inhibitors inavolisib, alpelisib, duvelisib, and copanlisib in multi-cell type tumor spheroids
A high-throughput screen of multi-cell type tumor spheroids was designed to identify active combinations of targeted small molecules and PI3K pathway inhibitors. Complex spheroids include a stromal component modeled by human endothelial cells (HUVEC) and fibroblasts modeled by human mesenchymal stem cells (MSCs). The concentration ranges selected for each drug and investigational agent were based upon clinically achievable concentrations if the clinical Cmax of the agent was known.
Compounds. The drugs and investigational agents: inavolisib (NSC800729), alpelisib (NSC765974), duvelisib (NSC772469), copanlisib (NSC816437), ipatasertib (NSC767898), afuresertib (NSC778305), talazoparib (NSC767125), sapanisertib (NSC764658), selumetinib (NSC741078), tovorafenib (DAY101, NSC766906), vemurafenib (NSC761431), ravoxertinib (NSC781343), sotorasib (NSC818433), MRTX1133 (NSC 836407), abemaciclib (NSC 768073), palbociclib (NSC758247), venetoclax (NSC 766270), SY5609 (NSC837396), enzalutamide (NSC755605), and darolutamide (NSC825331), were obtained from the National Cancer Institute (NCI) Developmental Therapeutics Program Chemical Repository. The FDA-approved anticancer drug set is available from the NCI Developmental Therapeutics Program. […] The stock solutions were prepared in dimethyl sulfoxide (DMSO, Sigma-Aldrich, St. Louis, MO, cat. D2650) at 800-fold the tested concentration and stored at -70 degrees C prior to their use. All drugs and investigational agents were tested over a range starting from a high concentration at or near the clinical Cmax and decreasing in half-log increments. If the clinical Cmax for an agent had not been determined, the highest concentration tested was 10 microM.
Cell Culture. All cells were maintained in an incubator at 37 degrees C and 5% CO2 with 95% humidity. The PDC lines were cultured according to standard operating procedures established by the NCI PDMR (https://pdmr.cancer.gov/sops/default.htm). All PDCs were thawed and cultured in Matrigel-coated flasks prepared with a working solution of 1X Ham's F-12 nutrient mix, without supplementation (Invitrogen, Waltham, MA, cat. 11765054), 100 U/mL penicillin-streptomycin (Invitrogen, cat. 15140122), and 2.5% Matrigel (Corning Inc., Corning, NY, cat. 354248) for the first three passages. The 354836-022-R-J1-PDC, 475296-252-R-J1-PDC, and 997726-040-R-J2-PDC lines were cultured in 6A media, which includes advanced DMEM/F-12 (Thermo Fisher Scientific, cat. 12634028), 10 mM HEPES (Thermo Fisher Scientific, cat. 15630080), 1X GlutaMAX supplement (Thermo Fisher Scientific, cat. 35050061), 0.1 mg/mL primocin (InvivoGen, San Diego, CA, cat. ant-pm-2), 10% defined fetal bovine serum, heat inactivated (HyClone Laboratories Inc., Logan, UT, cat. SH30070.03HI), 50% L-WRN conditioned media (ATCC, cat. CRL-3276), 1.25 mM N-Acetyl-L-cysteine (Sigma-Aldrich, cat. A9165), 10 mM nicotinamide (Sigma-Aldrich, cat. N0636), 1X B-27 supplement (Thermo Fisher Scientific, cat. 17504044), 1X N-2 supplement (Thermo Fisher Scientific, cat. 17502048), and 10 microM Y-27632 dihydrochloride (Tocris Bioscience, Bristol, United Kingdom, cat. 1254). The 624824-186-R-J2-PDC line was cultured in 6C/Colon 1B media, which includes all 6A media components plus 50 ng/mL human EGF recombinant protein (Thermo Fisher Scientific, cat. PHG0311). […]
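Note: spheroids exposed to compounds for seven days before reading.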

`Cn1cnc2c(F)c(Nc3ccc(Br)cc3Cl)c(C(=O)NOCCO)cc21` + CC(Nc1ccc2c(c1)OCCn1cc(N3C(=O)OCC3C(F)F)nc1-2)C(N)=O was tested, and the IC50 (second compound 0.00316 µM) was greater than 3 µM, the IC50 (second compound 0.01 µM) was greater than 3 µM and the IC50 (second compound 0.0316 µM) was greater than 3 µM. For the same compound, the IC50 (second compound 0.1 µM) was greater than 3 µM, the IC50 (second compound 0.316 µM) was greater than 3 µM and the IC50 (second compound 1 µM) was 0.714 µM. The viability, T/C (second compound 0.00316 µM, first compound 0.00949 µM) was 121%, the viability, T/C (second compound 0.00316 µM, first compound 0.03 µM) was 86.4% and the viability, T/C (second compound 0.00316 µM, first compound 0.0949 µM) was 114%. The viability, T/C (second compound 0.00316 µM, first compound 0.3 µM) was 75.8%, the viability, T/C (second compound 0.00316 µM, first compound 0.949 µM) was 70.7% and the viability, T/C (second compound 0.00316 µM, first compound 3 µM) was 74.5%. The viability, T/C (second compound 0.01 µM, first compound 0.00949 µM) was 92.2%, the viability, T/C (second compound 0.01 µM, first compound 0.03 µM) was 101% and the viability, T/C (second compound 0.01 µM, first compound 0.0949 µM) was 92.2%. It also gave a viability, T/C (second compound 0.01 µM, first compound 0.3 µM) of 89.4%, a viability, T/C (second compound 0.01 µM, first compound 0.949 µM) of 74.9% and a viability, T/C (second compound 0.01 µM, first compound 3 µM) of 78.5%. The viability, T/C (second compound 0.0316 µM, first compound 0.00949 µM) was 121%, the viability, T/C (second compound 0.0316 µM, first compound 0.03 µM) was 99.6% and the viability, T/C (second compound 0.0316 µM, first compound 0.0949 µM) was 112%. It also gave a viability, T/C (second compound 0.0316 µM, first compound 0.3 µM) of 93.7%, a viability, T/C (second compound 0.0316 µM, first compound 0.949 µM) of 78.8% and a viability, T/C (second compound 0.0316 µM, first compound 3 µM) of 74.5%. For the same compound, the viability, T/C (second compound 0.1 µM, first compound 0.00949 µM) was 88.9%, the viability, T/C (second compound 0.1 µM, first compound 0.03 µM) was 102% and the viability, T/C (second compound 0.1 µM, first compound 0.0949 µM) was 81.2%. For the same compound, the viability, T/C (second compound 0.1 µM, first compound 0.3 µM) was 80.4%, the viability, T/C (second compound 0.1 µM, first compound 0.949 µM) was 75.1% and the viability, T/C (second compound 0.1 µM, first compound 3 µM) was 74.2%. The viability, T/C (second compound 0.316 µM, first compound 0.00949 µM) was 69.9%, the viability, T/C (second compound 0.316 µM, first compound 0.03 µM) was 88.6% and the viability, T/C (second compound 0.316 µM, first compound 0.0949 µM) was 72.4%. For the same compound, the viability, T/C (second compound 0.316 µM, first compound 0.3 µM) was 75.6%, the viability, T/C (second compound 0.316 µM, first compound 0.949 µM) was 75.9% and the viability, T/C (second compound 0.316 µM, first compound 3 µM) was 66.1%. For the same compound, the viability, T/C (second compound 1 µM, first compound 0.00949 µM) was 75.7%, the viability, T/C (second compound 1 µM, first compound 0.03 µM) was 72% and the viability, T/C (second compound 1 µM, first compound 0.0949 µM) was 72.8%. For the same compound, the viability, T/C (second compound 1 µM, first compound 0.3 µM) was 65.2%, the viability, T/C (second compound 1 µM, first compound 0.949 µM) was 45% and the viability, T/C (second compound 1 µM, first compound 3 µM) was 37.6%.
